Experimental data taken from US20230301299A1, “DISINFECTING FORMULATIONS WITH CARVACROL” (priority 2022, published 2023).

Legend:
Staphylococcus aureus [1] = experiment: minimum inhibitory concentration test (normalized T0, growth after neutralisation); type: cell-based; conditions: for inhibitory effect (normalized T0, lower = increased inhibitory effect): FIG. 1, 0.5% essential oil compound, 5 minute contact time, 24 hour growth
Description: Various essential oil compounds were evaluated in a minimum inhibitory concentration test (e.g., against Staphylococcus aureus), to evaluate the inhibiting characteristics of the various tested compounds. […] Each candidate essential oil compound active was tested at 0.5% concentration, with 1% sodium lauryl sulfate (SLS), with a 5 minute contact time. As those of skill in the art will appreciate, the testing was conducted following EPA microbiology efficacy protocols, where the candidate active to be tested is applied to an inoculum (e.g., Staphylococcus aureus), and after a given contact time (e.g., 5 minutes), the active being tested is neutralized (e.g., with growth media), and the treated inoculum is allowed to grow out over a period of 24 hours. After the 24 hour growth period, an automated plate reader is used to measure inoculum growth, and the results are tabulated, relative to a control standard, which was not contacted with any active. Such testing therefore allows determination of which candidate actives provide for an inhibitory effect relative to a target microbe, as well as information relative to which candidate actives may be better than others.
Based on the results seen in FIG. 1, carvacrol was identified as a good candidate for further study. […] All tested samples included 1% SLS, with 0.5% of the shown co-surfactant, and 0.2% of the shown essential oil compound, with the results averaged over 3 contact times of 5, 15, and 30 minutes. […] For example, the amine oxide, sophorolipid, alkylpolyglycoside, and alcohol ethoxylate show such results, particularly in combination with carvacrol. For this reason, such surfactants may be avoided, in at least some embodiments of the present invention.
All tested samples included 1.5% SLS as the primary surfactant, with 1% of the shown essential oil compound, and 1% of the tested co-surfactant.
In particular, FIG. 5 plots change in T0 (ΔT0) compared to carvacrol as used alone (i.e. with no secondary essential oil compound).

Staphylococcus aureus [2] = experiment: log reduction, EPA germicidal spray test (GST) / OECD quantitative method; type: cell-based; conditions: FIG. 7; 1% SLS, 0.5% second alkyl sulfate, 0.4% silicate buffer, 0.25% chelating agent, carvacrol 0.2% up to 1%; 3 and 5 minute contact times
Description: Tests were performed under standards promulgated by the EPA (e.g., the EPA's germicidal spray test “GST”) and the OECD (e.g., the Organization for Economic Co-Operation and Development). The OECD standards include an evaluation of the tested compositions ability to work in an environment where the target surface being cleaned includes soiling. The GST test is carried out according to the EPA's Standard Operating Procedure for Germicidal Spray Products as Disinfectants (GSPT): Testing of Staphylococcus aureus, Pseudomonas aeruginosa, and Salmonella enterica, published under SOP MB-06-09, which is herein incorporated by reference in its entirety. Such is available at https://www.epa.gov/sites/default/files/2018-01/documents/mb-06-09,pdf. The OECD test is carried out according to the EPA's Standard Operating Procedure for OECD Quantitative Method for Evaluating Bactericidal and Mycobactericidal Activity of Microbicides Used on Hard, Non-Porous Surfaces, published under SOP MB-25-05, which is herein incorporated by reference in its entirety. Such is available at https://www.epa.gov/sites/default/files/2019-05/documents/mb-25-05.pdf.

[3] = FIG. 2, 1% SLS, 0.5% co-surfactant, 0.2% essential oil compound, averaged over contact times of 5, 15 and 30 minutes

`Cc1ccc(C(C)C)c(O)c1` [thymol, reference compound] was tested, and the “inhibitory effect (normalized T0, lower = increased inhibitory effect)” value (Staphylococcus aureus [1]; 1% SLS) was “some inhibitory effect”.
alcohol ethoxylate was tested, and the “inhibitory effect (normalized T0)” value (Staphylococcus aureus [1]; [3]) was “opposite of an inhibitory effect”.
In the case of alkylpolyglycoside, the “inhibitory effect (normalized T0)” value (Staphylococcus aureus [1]; [3]) is reported as “opposite of an inhibitory effect”.
With `Cc1ccc(C(C)C)cc1O` [carvacrol] the “inhibitory effect (normalized T0, lower = increased inhibitory effect)” value (Staphylococcus aureus [1]; 1% SLS) was “best inhibitory effect”, the “inhibitory effect (normalized T0)” value (Staphylococcus aureus [1]; FIG. 3, 1.5% SLS, 1% essential oil compound, 1% co-surfactant) was “lowest T0 values” and the “log reduction against Staphylococcus aureus” value (Staphylococcus aureus [2]) was “increased log reduction with increasing carvacrol concentration”.
In the case of sophorolipid, the “inhibitory effect (normalized T0)” value (Staphylococcus aureus [1]; [3]) is reported as “opposite of an inhibitory effect”.
